Laboratory results taken from ChEMBL document CHEMBL5370529, “Perspectives on the current antiviral developments towards RNA-dependent RNA polymerase (RdRp) and methyltransferase (MTase) domains of dengue virus non-structural protein 5 (DENV-NS5)” (Eur J Med Chem, 2023).
Values after ≈ are worked out from the molar mass of the structure shown. Each block holds one compound with its values, some of them ahead of it.

Key:
[1] = Inhibition of DENV-3 RNA-dependent RNA polymerase expressed in Escherichia coli; design: species or system dengue virus type 3
[2] = Inhibition of DENV-4 full length NS5/RNA-dependent RNA polymerase; design: species or system dengue virus type 4
[3] = Cytotoxicity against African green monkey Vero cells assessed as reduction in cell viability measured after 3 to 5 days by Cell titer-glo luminescent assay; assay type: toxicity, cell-based; conditions: chlorocebus sabaeus, time 3-5 day
[4] = Cytotoxicity against African green monkey Vero cells assessed as reduction in cell viability measured after 72 hrs by MTT assay; assay type: toxicity, cell-based; conditions: chlorocebus sabaeus
[5] = test system: dengue virus type 2; experiment: Antiviral activity against Dengue virus 2 infected in African green monkey Vero cells assessed as suppression of viral replication; assay type: functional, organism-based
[6] = molecular target: T1, Nonstructural protein 5 (Dengue virus, UniProt V5TFZ2); experiment: Inhibition of DENV C-terminal histidine-tagged NS5/RNA-dependent RNA polymerase
T1 sequence (V5TFZ2 whole entry): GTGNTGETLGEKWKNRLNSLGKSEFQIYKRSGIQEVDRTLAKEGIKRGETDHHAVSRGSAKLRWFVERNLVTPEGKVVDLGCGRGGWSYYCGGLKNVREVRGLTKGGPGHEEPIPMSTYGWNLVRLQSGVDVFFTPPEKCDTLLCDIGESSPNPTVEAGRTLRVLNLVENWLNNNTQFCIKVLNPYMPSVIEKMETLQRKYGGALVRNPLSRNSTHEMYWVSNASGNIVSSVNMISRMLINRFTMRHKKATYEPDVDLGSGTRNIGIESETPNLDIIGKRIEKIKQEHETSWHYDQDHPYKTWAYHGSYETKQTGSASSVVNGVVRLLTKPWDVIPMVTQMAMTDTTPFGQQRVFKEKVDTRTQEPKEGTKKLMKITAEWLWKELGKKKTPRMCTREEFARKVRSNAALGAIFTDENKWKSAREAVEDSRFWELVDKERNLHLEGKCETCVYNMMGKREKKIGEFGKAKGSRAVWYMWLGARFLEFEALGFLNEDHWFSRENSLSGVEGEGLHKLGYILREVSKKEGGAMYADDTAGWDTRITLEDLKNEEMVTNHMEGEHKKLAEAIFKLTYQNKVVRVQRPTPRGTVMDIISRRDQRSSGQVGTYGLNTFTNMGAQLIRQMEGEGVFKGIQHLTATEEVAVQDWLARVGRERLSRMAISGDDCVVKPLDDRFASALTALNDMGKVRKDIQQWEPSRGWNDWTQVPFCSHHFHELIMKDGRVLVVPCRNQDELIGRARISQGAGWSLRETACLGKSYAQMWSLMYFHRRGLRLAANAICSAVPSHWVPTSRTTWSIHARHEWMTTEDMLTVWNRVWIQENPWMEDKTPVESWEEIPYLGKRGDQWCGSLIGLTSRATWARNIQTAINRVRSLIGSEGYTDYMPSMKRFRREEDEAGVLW

[7] = Inhibition of DENV-2 NS5 polymerase incubated for 1 hr by fluorescence based analysis; design: species or system dengue virus type 2
[8] = Cytotoxicity against hamster BHK-21 cells assessed as reduction in cell viability measured after 24 hrs by MTT assay; assay type: toxicity, cell-based, Mesocricetus auratus
[9] = test system: PBMC; experiment: Cytotoxicity against human PBMC cells assessed as reduction in cell viability measured after 48 hrs by Cell-titer glo luminescent assay; assay type: functional
[10] = Cytotoxicity against hamster BHK-21 cells assessed as reduction in cell viability measured after 48 hrs by Cell-titer glo luminescent assay; assay type: toxicity, cell-based, Mesocricetus auratus
[11] = test system: Huh-7; experiment: Cytotoxicity against human Huh-7 cells assessed as reduction in cell viability measured after 48 hrs by Cell-titer glo luminescent assay; assay type: functional
[12] = Inhibition of Dengue virus RNA-dependent RNA polymerase in human Huh-7 cells; assay type: cell-based
[13] = test system: A549; experiment: Cytotoxicity against human A549 cells assessed as reduction in cell viability measured after 48 hrs by Cell-titer glo luminescent assay; assay type: functional
[14] = Inhibition of DENV3 N-terminal 6-His-tagged RNA-dependent RNA polymerase expressed in Escherichia coli BL21; design: species or system dengue virus type 3
[15] = Cytotoxicity against African green monkey Vero E6 cells assessed as reduction in cell viability measured after 96 hrs by MTT assay; assay type: toxicity, cell-based; conditions: chlorocebus sabaeus, Vero E6 (Vero C1008) cells
[16] = Inhibition of Dengue virus 3 nucleoside-2'O-methyltransferase; design: species or system dengue virus type 3
[17] = molecular target: T1, Nonstructural protein 5; experiment: Inhibition of DENV/NS5 RNA-dependent RNA polymerase
[18] = Inhibition of DENV-2 full length His-tagged RNA-dependent RNA polymerase expressed in Escherichia coli Rosetta cells BL21 (DE3) cells incubated for 2 hrs; design: species or system dengue virus type 2
[19] = test system: Huh-7; experiment: Cytotoxicity against human Huh-7 cells assessed as reduction in cell viability measured after 24 hrs by viral-Tox-glo assay; assay type: functional
[20] = molecular target: T1, Nonstructural protein 5; experiment: Inhibition of Dengue virus NS5/RNA-dependent RNA polymerase
[21] = Cytotoxicity against hamster BHK-21 cells assessed as reduction in cell viability measured after 42 hrs by MTT assay; assay type: toxicity, cell-based, Mesocricetus auratus
[22] = Inhibition of West Nile virus recombinant N-terminal NS5-methyltransferase
[23] = Cytotoxicity against asian tiger mosquito C6/36 cells assessed as reduction in cell viability measured after 24 hrs by MTT assay; assay type: toxicity, cell-based; conditions: aedes albopictus
[24] = Cytotoxicity against hamster BHK-21 cells assessed as cell growth inhibition measured after 48 hrs by MTT assay; assay type: toxicity, cell-based, Mesocricetus auratus
[25] = Cytotoxicity against human HEK293T cells assessed as reduction in cell viability measured after 48 hrs by MTT assay; assay type: toxicity, cell-based, HEK-293T
[26] = Inhibition of DENV RNA N7 methyltransferase; design: species or system Dengue virus
[27] = test system: A549; experiment: Cytotoxicity against human A549 cells assessed as reduction in cell viability measured after 48 hrs by MTT assay; assay type: functional
[28] = test system: Huh-7; experiment: Cytotoxicity against human Huh-7 cells assessed as reduction in cell viability measured after 48 hrs by MTT assay; assay type: functional
[29] = molecular target: T1, Nonstructural protein 5; experiment: Inhibition of DENV His-tagged recombinant NS5/RNA-dependent RNA polymerase
[30] = Inhibition of DENV RNA-dependent RNA polymerase activity; design: species or system Dengue virus
[31] = Cytotoxicity against monkey LLC-MK2 cells assessed as reduction in cell viability measured after 48 hrs by MTT assay; assay type: toxicity, cell-based, Macaca mulatta; conditions: rhesus monkey
[32] = test system: Huh-7; experiment: Cytotoxicity against human Huh-7 cells assessed as reduction in cell viability measured after 48 hrs by Celltiter-glo assay; assay type: functional
[33] = Inhibition of DENV-4 full length NS5/RNA-dependent RNA polymerase in Huh-7 cells; assay type: cell-based, dengue virus type 4

- IC50 [1]: 287 µM
- IC50 [2]: 445 µM
SMILES: CC(=O)Oc1ccc2oc(=O)sc2c1
- CC50 [3]: 50 µM

- IC50 [6]: 0.26 µM
SMILES: O=c1cc(-c2ccc(Oc3c(O)cc4oc(-c5ccc(O)cc5)cc(=O)c4c3O)cc2)oc2cc(O)cc(O)c12 [HINOKIFLAVONE]

- IC50 [7]: 1.9 µM
SMILES: COc1cc(C)c(C(=O)NS(=O)(=O)c2cccc3cccnc23)cc1-c1ccc(C#CCO)s1

- IC50 [14]: 1.5 µM
SMILES: O=C(N[C@@H](Cc1ccc(O)cc1)C(=O)O)c1cc(-c2ccccc2)c(=O)n2c1sc1ccc(OC3CCCCC3)cc12
- CC50 at 96 h [15]: > 100 µM

- IC50 [17]: 1.9 µM
SMILES: O=c1c(O)c(-c2ccc(O[C@@H]3O[C@H](CO)[C@@H](O)[C@H](O)[C@H]3O)c(O)c2)oc2cc(O)cc(O)c12 [SPIRAEOSIDE]

- IC50 [17]: 1.7 µM
SMILES: O=c1c(O[C@@H]2O[C@@H](CO)[C@H](O)[C@H]2O)c(-c2ccc(O)c(O)c2)oc2cc(O)cc(O)c12 [AVICULARIN]

- IC50 [18]: 2.3 µM
SMILES: O=C1[C@@H]2Cc3ccccc3N2[C@@H](c2ccc(O)c(O)c2)N1Nc1ccc([N+](=O)[O-])cc1

- IC50 [18]: 2.1 µM
SMILES: O=C1[C@@H]2Cc3ccccc3N2[C@@H](c2ccco2)N1Nc1ccccc1

- IC50 [6]: 0.33 µM
SMILES: O=c1cc(-c2ccc(O)c(-c3c(O)cc4oc(-c5ccc(O)cc5)cc(=O)c4c3O)c2)oc2cc(O)cc(O)c12 [ROBUSTAFLAVONE]

- IC50 [22]: 5.6 µM
SMILES: CC1=C(Nc2c(C)cc(O)cc2O)C(=O)C=c2oc3c(c21)C(C)=C(Nc1c(C)cc(O)cc1O)C(=O)C=3
- CC50 at 42 h [21]: 117 µM

- IC50 [29]: 150 µM
SMILES: Nc1cc(C(F)(F)F)ccc1NC(=O)Nc1cccc(S(=O)(=O)Nc2ccc(C(=O)O)cc2)c1

- IC50 [29]: 150 µM
SMILES: Nc1cc(C(F)(F)F)ccc1NC(=O)Nc1ccc(S(=O)(=O)Nc2ccc(C(=O)O)cc2)cc1

The remaining lines, values behind:

SMILES: CC(C)(O)[C@@H]1CC[C@](C)([C@H]2[C@@H](O)C[C@@]3(C)[C@@H]4C[C@H](O[C@@H]5O[C@H](CO)[C@@H](O)[C@H](O)[C@H]5O)[C@H]5C(C)(C)[C@@H](O[C@@H]6OC[C@@H](O)[C@H](O)[C@H]6O)CC[C@@]56C[C@@]46CC[C@]23C)O1
- CC50 at 72 h [4]: > 1000 µg/mL
- EC50 [5]: 1.56 µg/mL (≈ 1.99 µM)

SMILES: Cc1ccc(C2N(c3ccccc3)CC3=C(CC(C)(C)CC3=O)N2c2ccccc2)cc1 (stereo not given)
- CC50 at 24 h [8]: 10 µM

SMILES: C#C[C@@]1(O)[C@H](O)[C@@H](CO)O[C@H]1n1ccc2c(N)ncnc21
- CC50 [9]: > 100 µM
- CC50 at 48 h [10]: > 100 µM
- CC50 [11]: > 100 µM
- IC50 [12]: 0.31 µM
- CC50 [13]: > 100 µM

SMILES: NC(=O)c1ncn([C@@H]2O[C@H](COP(=O)(O)OP(=O)(O)OP(=O)(O)O)[C@@H](O)[C@H]2O)n1 [RTP]
- IC50 [16]: 100 µM

SMILES: CC(=O)O[C@H]1[C@H](O[C@H]2CC[C@]34C[C@]35CC[C@]3(C)[C@@H]([C@@]6(C)CC[C@@H](C(C)(C)O)O6)[C@@H](O)C[C@@]3(C)[C@@H]5C[C@H](O[C@@H]3O[C@H](CO)[C@@H](O)[C@H](O)[C@H]3O)[C@H]4C2(C)C)OC[C@@H](O)[C@@H]1O
- CC50 at 72 h [4]: > 1000 µg/mL
- EC50 [5]: 1.56 µg/mL (≈ 1.89 µM)

SMILES: CC(C)OC(=O)[C@H](C)N[P@](=O)(OC[C@H]1O[C@@H](n2ccc(=O)[nH]c2=O)[C@](C)(F)[C@@H]1O)Oc1ccccc1 [SOFOSBUVIR]
- CC50 [19]: > 100 µM
- IC50 [20]: 14.7 µM

SMILES: CC(C)(O)[C@H]1CC[C@@](C)([C@H]2[C@@H](O)C[C@]3(C)[C@H]4C[C@@H](O)[C@H]5C(C)(C)[C@H](O[C@H]6OC[C@H](O)[C@@H](O)[C@@H]6O[C@H]6O[C@@H](CO)[C@H](O)[C@@H](O)[C@@H]6O)CC[C@]56C[C@]46CC[C@@]23C)O1
- CC50 at 72 h [4]: > 1000 µg/mL
- EC50 [5]: 1.56 µg/mL (≈ 1.99 µM)

SMILES: C=C1CC[C@@H]2[C@](C)(CO)[C@H](O)CC[C@@]2(C)[C@@H]1C/C=C1/C(=O)OC[C@H]1O [ANDROGRAPHOLIDE]
- CC50 at 24 h [23]: 15.6 µg/mL (≈ 44.6 µM)

SMILES: C=C1CC[C@@H]2[C@]3(C)COC(C)(C)O[C@@H]3CC[C@@]2(C)[C@@H]1C/C=C1/C(=O)OC[C@@H]1Oc1c(Cl)cc(Cl)c2ccc(C)nc12
- CC50 at 24 h [23]: 15.6 µg/mL (≈ 26 µM)

SMILES: CCC(/C(C)=C/c1cc(OC)c(OC)cc1OC)c1cc(OC)c(OC)cc1OC (stereo not given)
- CC50 at 48 h [24]: > 80 µM
- CC50 at 48 h [25]: > 80 µM
- IC50 [26]: 4.5 µM
- CC50 [27]: > 80 µM
- CC50 [28]: > 80 µM

SMILES: C[C@@H]1O[C@@H](Oc2c(-c3ccc(O)c(O)c3)oc3cc(O)cc(O)c3c2=O)[C@H](O)[C@H](O)[C@H]1O [QUERCITRIN]
- IC50 [17]: 2.1 µM

SMILES: C[C@@H]1O[C@@H](OC[C@H]2O[C@@H](Oc3c(-c4ccc(O)c(O)c4)oc4cc(O)cc(O)c4c3=O)[C@H](O)[C@@H](O)[C@@H]2O)[C@H](O)[C@H](O)[C@H]1O [RUTIN]
- IC50 [17]: 2.1 µM

SMILES: C#C[C@@]1(O)[C@H](OC(=O)C(C)C)[C@@H](COC(=O)C(C)C)O[C@H]1n1cc(C(N)=O)c2c(N)ncnc21
- IC50 [30]: 0.1 µM

SMILES: CC(=O)N[C@@H](C(=O)O)C(C)(C)SN=O
- CC50 at 48 h [31]: 200 µM
- IC50 [29]: 150 µM

SMILES: CC1=C(/C=C/C(C)=C/C=C/C(C)=C/C(=O)Nc2ccc(O)cc2)C(C)(C)CCC1 [FENRETINIDE]
- CC50 [32]: ≤ 10 µM
- IC50 [33]: 5 µM
